Reference: ChEMBL document CHEMBL1201862, “PubChem BioAssay data set” (2004)
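Step 1: Grow cells in 96-well plates. Step 2: Expose to compound for 48 hours at 5 concentrations. Step 3: Interpolate endpoints linearly; if unreached, use highest concentration. Abbreviation: GI50, concentration required for 50% inhibition of growth.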 Activity calls are given as the source filed them. Rule as the data show it: active = GI50 up to about 1.1 µM and inactive = higher.

Columns and labels:
Assay in all cases: inhibition of tumour cell growth, NCI panel, 48 h
786-0 = test system: 786-0
A549 = test system: A549
ACHN = test system: ACHN
BT-549 = test system: BT-549
CAKI-1 = test system: CAKI-1
CCRF-CEM = test system: CCRF-CEM
COLO 205 = test system: COLO 205
DU-145 = test system: DU-145
EKVX = test system: EKVX
HCC 2998 = test system: HCC 2998
HCT-116 = test system: HCT-116
HCT-15 = test system: HCT-15
HOP-62 = test system: HOP-62
HOP-92 = test system: HOP-92
HT-29 = test system: HT-29
Hs-578T = test system: Hs-578T
IGROV-1 = test system: IGROV-1
K562 = test system: K562
KM12 = test system: KM12
LOX IMVI = test system: LOX IMVI
M14 = test system: M14
MCF7 = test system: MCF7
MDA-MB-231 = test system: MDA-MB-231
MDA-MB-435 = test system: MDA-MB-435
MDA-N = test system: MDA-N
MOLT-4 = test system: MOLT-4
Malme-3M = test system: Malme-3M
NCI-H226 = test system: NCI-H226
NCI-H23 = test system: NCI-H23
NCI/ADR-RES = test system: NCI/ADR-RES
OVCAR-3 = test system: OVCAR-3
OVCAR-4 = test system: OVCAR-4
OVCAR-5 = test system: OVCAR-5
OVCAR-8 = test system: OVCAR-8
PC-3 = test system: PC-3
RPMI-8226 = test system: RPMI-8226
RXF 393 = test system: RXF 393
SF-268 = test system: SF-268
SF-295 = test system: SF-295
SF-539 = test system: SF-539
SK-MEL-28 = test system: SK-MEL-28
SK-MEL-2 = test system: SK-MEL-2
SK-OV-3 = test system: SK-OV-3
SN12C = test system: SN12C
SNB-19 = test system: SNB-19
SR = test system: SR
SW-620 = test system: SW-620
T47D = test system: T47D
TK-10 = test system: TK-10
U-251 = test system: U-251
UACC-257 = test system: UACC-257
UACC-62 = test system: UACC-62
A498 = test system: A498
HL-60 = test system: HL-60
NCI-H460 = test system: NCI-H460
NCI-H522 = test system: NCI-H522
SK-MEL-5 = test system: SK-MEL-5
SNB-75 = test system: SNB-75
UO-31 = test system: UO-31

Measured: GI50

Fc1cccc(Cl)c1C1SCc2nc3cc4ccccc4cc3n21 (centres undefined)
> 100 µM: HCT-15
inactive: 786-0 39.4 µM | A549 > 100 µM | ACHN > 100 µM | BT-549 > 100 µM | CAKI-1 99.1 µM | CCRF-CEM > 100 µM | COLO 205 > 100 µM | DU-145 > 100 µM | EKVX > 100 µM | HCC 2998 > 100 µM | HCT-116 68.5 µM | HOP-62 35 µM | HOP-92 19.6 µM | HT-29 89.1 µM | Hs-578T 28.7 µM | IGROV-1 46.9 µM | K562 > 100 µM | KM12 > 100 µM | LOX IMVI > 100 µM | M14 > 100 µM | MCF7 > 100 µM | MDA-MB-231 61.5 µM | MDA-MB-435 > 100 µM | MDA-N > 100 µM | MOLT-4 > 100 µM | Malme-3M 43.4 µM | NCI-H226 33.8 µM | NCI-H23 > 100 µM | NCI/ADR-RES 64.6 µM | OVCAR-3 66.1 µM | OVCAR-4 28.9 µM | OVCAR-5 > 100 µM | OVCAR-8 39.4 µM | PC-3 > 100 µM | RPMI-8226 > 100 µM | RXF 393 > 100 µM | SF-268 > 100 µM | SF-295 62.7 µM | SF-539 82.8 µM | SK-MEL-28 > 100 µM | SK-MEL-2 > 100 µM | SK-OV-3 37 µM | SN12C 61.1 µM | SNB-19 52.7 µM | SR 8.32 µM | SW-620 > 100 µM | T47D > 100 µM | TK-10 62.7 µM | U-251 > 100 µM | UACC-257 > 100 µM | UACC-62 43.6 µM

CC1(CCCO)CCCCCCCCCC(C)(CCCO)C1=O (centres undefined)
> 100 µM: HCT-15
inactive: 786-0 > 100 µM | A498 > 100 µM | A549 87.3 µM | ACHN > 100 µM | BT-549 > 100 µM | CAKI-1 > 100 µM | CCRF-CEM 55 µM | COLO 205 > 100 µM | DU-145 > 100 µM | EKVX > 100 µM | HCC 2998 > 100 µM | HCT-116 94 µM | HL-60 40 µM | HOP-62 > 100 µM | HOP-92 > 100 µM | HT-29 > 100 µM | Hs-578T > 100 µM | IGROV-1 > 100 µM | K562 > 100 µM | KM12 > 100 µM | LOX IMVI > 100 µM | M14 > 100 µM | MCF7 > 100 µM | MDA-MB-231 > 100 µM | MDA-MB-435 > 100 µM | MDA-N > 100 µM | MOLT-4 > 100 µM | Malme-3M > 100 µM | NCI-H226 > 100 µM | NCI-H23 > 100 µM | NCI-H460 > 100 µM | NCI-H522 > 100 µM | NCI/ADR-RES > 100 µM | OVCAR-3 > 100 µM | OVCAR-4 > 100 µM | OVCAR-5 > 100 µM | OVCAR-8 > 100 µM | PC-3 > 100 µM | RPMI-8226 > 100 µM | RXF 393 > 100 µM | SF-268 > 100 µM | SF-295 > 100 µM | SK-MEL-28 > 100 µM | SK-MEL-2 97.5 µM | SK-MEL-5 > 100 µM | SK-OV-3 > 100 µM | SN12C > 100 µM | SNB-19 > 100 µM | SNB-75 > 100 µM | SW-620 > 100 µM | T47D > 100 µM | U-251 > 100 µM | UACC-257 > 100 µM | UACC-62 > 100 µM | UO-31 > 100 µM

N=C(N)C(/N=N\c1ccccc1)C(N)=O (centres undefined)
83.8 µM: HCT-15
inactive: 786-0 > 100 µM | A498 66.5 µM | A549 > 100 µM | ACHN > 100 µM | BT-549 > 100 µM | CAKI-1 64.7 µM | COLO 205 > 100 µM | DU-145 > 100 µM | EKVX 95.7 µM | HCC 2998 > 100 µM | HCT-116 > 100 µM | HL-60 > 100 µM | HOP-62 > 100 µM | HOP-92 > 100 µM | HT-29 > 100 µM | Hs-578T > 100 µM | IGROV-1 > 100 µM | K562 35.9 µM | KM12 59.4 µM | LOX IMVI 83 µM | M14 > 100 µM | MCF7 > 100 µM | MDA-MB-231 > 100 µM | MDA-MB-435 83.4 µM | MDA-N > 100 µM | MOLT-4 > 100 µM | Malme-3M > 100 µM | NCI-H226 > 100 µM | NCI-H23 > 100 µM | NCI-H460 > 100 µM | NCI-H522 > 100 µM | NCI/ADR-RES > 100 µM | OVCAR-3 > 100 µM | OVCAR-4 53.7 µM | OVCAR-5 > 100 µM | OVCAR-8 > 100 µM | PC-3 > 100 µM | RPMI-8226 > 100 µM | RXF 393 87.3 µM | SF-268 > 100 µM | SF-295 62.8 µM | SK-MEL-28 > 100 µM | SK-MEL-2 66.1 µM | SK-MEL-5 > 100 µM | SK-OV-3 > 100 µM | SN12C > 100 µM | SNB-19 > 100 µM | SNB-75 > 100 µM | SW-620 > 100 µM | T47D 57.7 µM | TK-10 96.4 µM | U-251 > 100 µM | UACC-257 > 100 µM | UACC-62 43.3 µM | UO-31 > 100 µM
